Data as given in patent publication US8697739B2, “Bicyclic acetyl-CoA carboxylase inhibitors and uses thereof” (Novartis AG, priority 2010, dated 2014).

biological target: T1, human acetyl-CoA carboxylase 2 (ACC2) (Homo sapiens, UniProt O00763); assay: Acetyl-CoA carboxylase enzyme assay (malonyl-CoA formation by LC/MS/MS); assay type: biochemical; settings: recombinant human ACC2 (aa 144-2458); read-out: IC50 ACC2
T1 construct: The cDNA encoding amino acids 144 to 2458 of human acetyl-CoA carboxylase 2; made in house; host or cells: Sf9 insect cells (baculovirus, pFastBac1)
T1 sequence (O00763 144-2458): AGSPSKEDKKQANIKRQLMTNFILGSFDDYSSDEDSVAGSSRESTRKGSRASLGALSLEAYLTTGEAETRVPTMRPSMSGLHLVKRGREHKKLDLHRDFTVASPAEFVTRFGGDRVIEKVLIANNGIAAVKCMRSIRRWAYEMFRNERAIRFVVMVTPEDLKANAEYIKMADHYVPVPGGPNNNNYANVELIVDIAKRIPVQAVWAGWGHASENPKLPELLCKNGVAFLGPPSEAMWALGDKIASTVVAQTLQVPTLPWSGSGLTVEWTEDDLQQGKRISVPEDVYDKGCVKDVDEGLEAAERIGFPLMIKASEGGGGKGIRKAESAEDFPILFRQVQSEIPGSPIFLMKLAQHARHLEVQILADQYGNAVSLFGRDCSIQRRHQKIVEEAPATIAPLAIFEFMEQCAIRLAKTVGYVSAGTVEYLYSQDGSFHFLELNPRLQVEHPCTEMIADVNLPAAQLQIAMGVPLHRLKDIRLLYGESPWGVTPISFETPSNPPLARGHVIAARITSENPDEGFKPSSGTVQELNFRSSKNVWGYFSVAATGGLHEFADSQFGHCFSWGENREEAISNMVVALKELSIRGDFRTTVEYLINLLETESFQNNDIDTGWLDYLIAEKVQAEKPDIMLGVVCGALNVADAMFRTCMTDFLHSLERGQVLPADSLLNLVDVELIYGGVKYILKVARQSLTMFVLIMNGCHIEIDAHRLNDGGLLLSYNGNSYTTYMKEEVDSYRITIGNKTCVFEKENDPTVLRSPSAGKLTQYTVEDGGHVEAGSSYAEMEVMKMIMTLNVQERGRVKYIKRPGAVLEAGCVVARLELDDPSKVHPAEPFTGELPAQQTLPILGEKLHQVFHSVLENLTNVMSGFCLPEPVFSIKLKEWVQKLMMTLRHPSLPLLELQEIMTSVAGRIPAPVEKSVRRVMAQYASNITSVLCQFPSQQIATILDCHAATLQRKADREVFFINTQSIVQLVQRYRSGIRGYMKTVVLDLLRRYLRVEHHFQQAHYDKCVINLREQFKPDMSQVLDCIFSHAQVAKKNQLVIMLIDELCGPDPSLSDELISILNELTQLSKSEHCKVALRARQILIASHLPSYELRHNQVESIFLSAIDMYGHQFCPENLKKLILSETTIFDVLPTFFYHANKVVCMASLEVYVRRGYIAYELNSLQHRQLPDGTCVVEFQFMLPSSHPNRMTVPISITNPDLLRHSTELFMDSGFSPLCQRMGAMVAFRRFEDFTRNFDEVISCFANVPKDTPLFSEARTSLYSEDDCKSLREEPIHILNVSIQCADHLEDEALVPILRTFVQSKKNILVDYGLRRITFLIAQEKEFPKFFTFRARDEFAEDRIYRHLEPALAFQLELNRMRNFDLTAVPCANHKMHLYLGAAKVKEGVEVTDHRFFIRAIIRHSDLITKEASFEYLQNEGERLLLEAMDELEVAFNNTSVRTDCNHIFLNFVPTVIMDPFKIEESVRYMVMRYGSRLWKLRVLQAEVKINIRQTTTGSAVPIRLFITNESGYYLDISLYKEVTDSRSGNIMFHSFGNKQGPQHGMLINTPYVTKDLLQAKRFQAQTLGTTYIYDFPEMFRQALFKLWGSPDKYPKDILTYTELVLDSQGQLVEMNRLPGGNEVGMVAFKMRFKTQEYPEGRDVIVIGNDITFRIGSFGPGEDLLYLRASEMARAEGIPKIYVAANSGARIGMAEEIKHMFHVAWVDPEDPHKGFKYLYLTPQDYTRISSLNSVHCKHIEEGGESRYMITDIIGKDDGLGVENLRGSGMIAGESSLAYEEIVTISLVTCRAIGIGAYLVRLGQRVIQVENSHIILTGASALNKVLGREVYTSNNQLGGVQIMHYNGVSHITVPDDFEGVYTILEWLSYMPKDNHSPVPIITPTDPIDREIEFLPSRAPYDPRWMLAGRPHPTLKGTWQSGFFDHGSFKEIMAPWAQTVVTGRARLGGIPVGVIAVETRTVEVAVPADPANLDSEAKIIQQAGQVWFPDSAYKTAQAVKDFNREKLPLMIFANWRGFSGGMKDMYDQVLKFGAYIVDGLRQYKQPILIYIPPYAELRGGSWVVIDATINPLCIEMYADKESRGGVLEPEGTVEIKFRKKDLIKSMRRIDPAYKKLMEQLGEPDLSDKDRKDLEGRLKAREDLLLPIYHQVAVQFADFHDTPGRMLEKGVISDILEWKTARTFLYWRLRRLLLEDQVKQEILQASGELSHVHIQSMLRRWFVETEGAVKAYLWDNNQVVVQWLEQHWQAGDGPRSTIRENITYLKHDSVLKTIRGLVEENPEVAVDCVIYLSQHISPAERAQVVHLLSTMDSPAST
In short: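 Malonyl-CoA formation was read by LC/MS/MS MRM against a [13C3]-malonyl-CoA internal standard, after acetic acid quench. The enzyme was baculovirus/Sf9-expressed human ACC2 residues 144–2458, given 15 minutes room-temperature compound preincubation in HEPES pH 7.5 buffer with MgCl2, citrate and DTT. Substrate solution held 50 μM acetyl-CoA, 120 μM ATP and 2 mM KHCO3.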

SMILES	IC50 [µM]
Cn1c(-c2ccc(CO)cc2)cc2ccc(S(=O)(=O)N[C@H]3CC[C@H](C(=O)N4CCOCC4)CC3)cc21 [Example 336, 2-(4-(hydroxymethyl)phenyl)-1-methyl-N-((1r,4r)-4-(morpholine-4-carbonyl)cyclohexyl)-1H-indole-6-sulfonamide]	0.035
CC(C)(C)c1nnc([C@H]2CC[C@H](NS(=O)(=O)c3ccc4[nH]c(Nc5ccccc5)nc4c3)CC2)o1 [Example 597, N-((1r,4r)-4-(5-tert-butyl-1,3,4-oxadiazol-2-yl)cyclohexyl)-2-(phenylamine)-1H-benzo[d]imidazole-5-sulfonamide]	0.162
Cc1ccc2cc(S(=O)(=O)N[C@H]3CC[C@H](C(=O)N[C@H](C)c4ccc(F)cc4)CC3)ccc2n1 [Example 72, (1r,4R)-N-((R)-1-(4-fluorophenyl)ethyl)-4-(2-methylquinoline-6-sulfonamido)cyclohexanecarboxamide]	0.115
COCc1ccc(-c2[nH]c3cc(S(=O)(=O)N[C@H]4CC[C@H](C(=O)N5CCOC[C@@H]5C5CC5)CC4)ccc3c2Cl)cc1 [Example 480, 3-chloro-N-((1S,4r)-4-((S)-3-cyclopropylmorpholine-4-carbonyl)cyclohexyl)-2-(4-(methoxymethyl)phenyl)-1H-indole-6-sulfonamide]	< 0.01
Cc1cccc(C)c1Nc1nc2cc(S(=O)(=O)Nc3ccc(C(=O)OC(C)C)cc3)ccc2[nH]1 [Example 540, isopropyl 4-(2-(2,6-dimethylphenylamino)-1H-benzo[d]imidazole-5-sulfonamido)benzoate]	> 139
C[C@@H](NC(=O)[C@H]1CC[C@H](NS(=O)(=O)c2ccc3cc(-c4ccccc4)[nH]c3c2)CC1)c1ccc(F)cc1 [Example 18, (1r,4R)—N—((R)-1-(4-fluorophenyl)ethyl)-4-(2-phenyl-1H-indole-6-sulfonamido)cyclohexanecarboxamide]	0.011
CC(C)(C)OC(=O)N1CCN(c2ccc(-c3nc4cc(S(=O)(=O)N[C@H]5CC[C@H](C(=O)N6CCOCC6)CC5)ccc4[nH]3)cc2)CC1 [Example 103, tert-butyl 4-(4-(5-(N-((1r,4r)-4-(morpholine-4-carbonyl)cyclohexyl)sulfamoyl)-1H-benzo[d]imidazol-2-yl)phenyl)piperazine-1-carboxylate]	0.038
C[C@@H](NC(=O)[C@H]1CC[C@H](NS(=O)(=O)c2ccc3[nH]c(-c4cccnc4)cc3c2)CC1)c1ccc(F)cc1 [Example 285, (1r,4R)-N-((R)-1-(4-fluorophenyl)ethyl)-4-(2-(pyridin-3-yl)-1H-indole-5-sulfonamido)cyclohexanecarboxamide]	0.012
CCOc1ccc2cc(S(=O)(=O)N[C@H]3CC[C@H](C(=O)N4CCNC[C@@H]4C(=O)O)CC3)ccc2n1 [Example 246, (R)-1-((1r,4R)-4-(2-ethoxyquinoline-6-sulfonamido)cyclohexanecarbonyl)piperazine-2-carboxylic acid]	> 35
Cc1c(-c2ccccc2)nc2ccc(S(=O)(=O)N[C@H]3CC[C@H](C(=O)N[C@H](C)c4ccc(F)cc4)CC3)cn12 [Example 70, (1r,4R)-N-((R)-1-(4-fluorophenyl)ethyl)-4-(3-methyl-2-phenylimidazo[1,2-a]pyridine-6-sulfonamido)cyclohexanecarboxamide]	0.165
C[C@@H](NC(=O)[C@H]1CC[C@H](NS(=O)(=O)c2ccc3c(c2)N(C)CCN3C)CC1)c1ccc(F)cc1 [Example 133, (1r,4R)-4-(1,4-dimethyl-1,2,3,4-tetrahydroquinoxaline-6-sulfonamido)-N-((R)-1-(4-fluorophenyl)ethyl)cyclohexanecarboxamide]	0.046
C[C@@H](NC(=O)[C@H]1CC[C@H](NS(=O)(=O)c2cnc3ccccc3c2)CC1)c1ccc(F)cc1 [Example 105, (1r,4R)-N-((R)-1-(4-fluorophenyl)ethyl)-4-(quinoline-3-sulfonamido)cyclohexanecarboxamide]	0.252
COC(=O)[C@H]1CC[C@H](NS(=O)(=O)c2ccc3nc(-c4cc(C)nc(C)c4)ccc3c2)CC1 [Example 252, (1r,4r)-methyl 4-(2-(2,6-dimethylpyridin-4-yl)quinoline-6-sulfonamido)cyclohexanecarboxylate]	> 35
C[C@@H](NC(=O)[C@H]1CC[C@H](NS(=O)(=O)c2cnc3ccccc3c2)CC1)c1ccccc1 [Example 55, (1r,4R)-N-((R)-1-phenylethyl)-4-(quinoline-3-sulfonamido)cyclohexanecarboxamide]	0.134
CN1CCN(c2ccc3cc(S(=O)(=O)N[C@H]4CC[C@H](C(=O)N[C@H](c5ccccc5)C(C)(C)O)CC4)ccc3n2)CC1 [Example 258, (1r,4R)-N-((R)-2-hydroxy-2-methyl-1-phenylpropyl)-4-(2-(4-methylpiperazin-1-yl)quinoline-6-sulfonamido)cyclohexanecarboxamide]	0.08
CCN(C)C(=O)[C@H]1CC[C@H](NS(=O)(=O)c2ccc3c(Cl)c(-c4ccc(CCC(=O)O)cc4)n(C)c3c2)CC1 [Example 366, 3-(4-(3-chloro-6-(N-((1r,4r)-4-(ethyl(methyl)carbamoyl)cyclohexyl)sulfamoyl)-1-methyl-1H-indol-2-yl)phenyl)propanoic acid]	0.015

The remaining lines, values ahead:

IC50 [µM]	SMILES
0.161	C[C@@H](NC(=O)[C@H]1CC[C@H](NS(=O)(=O)c2ccc3c(c2)CCC3)CC1)c1ccc(F)cc1 [Example 119, (1r,4R)-4-(2,3-dihydro-1H-indene-5-sulfonamido)-N-((R)-1-(4-fluorophenyl)ethyl)cyclohexanecarboxamide]
0.575	CC(C)Cc1cc2ccc(S(=O)(=O)N[C@H]3CC[C@H](C(=O)N[C@H](C)c4ccc(F)cc4)CC3)cc2[nH]1 [Example 303, (1r,4R)-N-((R)-1-(4-fluorophenyl)ethyl)-4-(2-isobutyl-1H-indole-6-sulfonamido)cyclohexanecarboxamide]
1.89	CC(=O)c1cccc(-c2nc3ccc(S(=O)(=O)Nc4ccc(C(=O)OC(C)C)cc4)cc3[nH]2)c1 [Example 494, isopropyl 4-(2-(3-acetylphenyl)-1H-benzo[d]imidazole-6-sulfonamido)benzoate]
0.16	CCc1ccc2cc(S(=O)(=O)N[C@H]3CC[C@H](C(=O)N[C@H](C)c4ccc(F)cc4)CC3)ccc2n1 [Example 74, (1r,4R)-4-(2-ethylquinoline-6-sulfonamido)-N-((R)-1-(4-fluorophenyl)ethyl)cyclohexanecarboxamide]
11.5	Cc1nc2cc(S(=O)(=O)N[C@H]3CC[C@H](c4nnc(C(C)(C)C)o4)CC3)ccc2[nH]1 [Example 615, N-((1r,4r)-4-(5-tert-butyl-1,3,4-oxadiazol-2-yl)cyclohexyl)-2-methyl-1H-benzo[d]imidazole-5-sulfonamide]
0.075	C[C@@H](NC(=O)C1CCC(NS(=O)(=O)c2cnc3c(c2)N[C@@H](Cc2ccccc2)CS3)CC1)c1ccc(F)cc1 (stereo partly drawn) [Example 189, 4-((S)-2-benzyl-2,3-dihydro-1H-pyrido[2,3-b][1,4]thiazine-7-sulfonamido)-N-((R)-1-(4-fluorophenyl)ethyl)cyclohexanecarboxamide]
0.138	Cn1ccc2cc(S(=O)(=O)N[C@H]3CC[C@H](C(=O)N[C@H](CCO)c4ccccc4)CC3)ccc21 [Example 673, (1r,4R)-N-((R)-3-hydroxy-1-phenylpropyl)-4-(1-methyl-1H-indole-5-sulfonamido)cyclohexanecarboxamide]
0.02	Cn1c(-c2ccc(CO)cc2)cc2ccc(S(=O)(=O)N[C@H]3CC[C@H](C(=O)N4CCN[C@H](C(F)(F)F)C4)CC3)cc21 [Example 337, 2-(4-(hydroxymethyl)phenyl)-1-methyl-N-((1S,4r)-4-((S)-3-(trifluoromethyl)piperazine-1-carbonyl)cyclohexyl)-1H-indole-6-sulfonamide]
0.91	C[C@@H](NC(=O)[C@H]1CC[C@H](NS(=O)(=O)c2ccc3c(c2)N(CC(=O)O)CCC3)CC1)c1ccc(F)cc1 [Example 166, 2-(7-(N-((1R,4r)-4-((R)-1-(4-fluorophenyl)ethylcarbamoyl)cyclohexyl)sulfamoyl)-3,4-dihydroquinolin-1(2H)-yl)acetic acid]
0.12	Cn1c(C2CC2)c(Cl)c2ccc(S(=O)(=O)N[C@H]3CC[C@H](C(=O)N4CCOCC4)CC3)cc21 [Example 363, 3-chloro-2-cyclopropyl-1-methyl-N-((1r,4r)-4-(morpholine-4-carbonyl)cyclohexyl)-1H-indole-6-sulfonamide]
0.189	CC[C@@H](NC(=O)[C@H]1CC[C@H](NS(=O)(=O)c2cnc3ccccc3c2)CC1)c1ccccc1 [Example 56, (1r,4R)-N-((R)-1-phenylpropyl)-4-(quinoline-3-sulfonamido)cyclohexanecarboxamide]
0.024	Cc1ccc(C)c(-c2cc3ccc(S(=O)(=O)N[C@H]4CC[C@H](C(=O)N[C@H](C)c5ccc(F)cc5)CC4)cc3[nH]2)c1 [Example 298, (1r,4R)-4-(2-(2,5-dimethylphenyl)-1H-indole-6-sulfonamido)-N-((R)-1-(4-fluorophenyl)ethyl)cyclohexanecarboxamide]
> 35	COC(=O)[C@H]1CC[C@H](CNS(=O)(=O)c2ccc3oc4ccccc4c3c2)CC1 [Example 267, (1r,4r)-methyl 4-((dibenzo[b,d]furan-2-sulfonamido)methyl)cyclohexanecarboxylate]
0.27	Cn1c(CCC(=O)O)cc2ccc(S(=O)(=O)N[C@H]3CC[C@H](C(=O)N4CCCC4c4ccc(F)cc4)CC3)cc21 (stereo partly shown) [Example 370, 3-(6-(N-((1r,4r)-4-(2-(4-fluorophenyl)pyrrolidine-1-carbonyl)cyclohexyl)sulfamoyl)-1-methyl-1H-indol-2-yl)propanoic acid]
0.078	CC1CC(C)CN(C(=O)[C@H]2CC[C@H](NS(=O)(=O)c3ccc4[nH]c(-c5ccccc5)nc4c3)CC2)C1 (stereo partly shown) [Example 626, N-((1r,4r)-4-(3,5-dimethylpiperidine-1-carbonyl)cyclohexyl)-2-phenyl-1H-benzo[d]imidazole-5-sulfonamide]
